Patent EP3747280A1, “ANTIMICROBIAL COMBINATION FOR USE IN ANIMAL FEEDS” (Lucta, S.A., priority 2019, dated 2020)

How the values were obtained:
Vibrio campbellii = test: MIC assay, positive control; format: cell-based; details: positive control of the MIC test
Procedure: It was tested whether the experimental products (i.e. comparative examples 1 and 2, and examples 1 to 3) could inactivate diverse shrimp or fish and shrimp bacterial pathogens when directly interacting under an in vitro setting.
Bacterial growth was evaluated by visual and optical density.

[1] = in animal feeds, in 20 to 40 days; higher depending on the thermal treatment of feed; cited from earlier work
[2] = Stability test in an animal feed (GC/FID quantification of the active ingredient in fish feed over storage time); format: physicochemical
Text: The animal feed used was a commercial fish feed having a 52 wt% of crude protein.
Two 200 g samples of the commercial feed were taken for the application of each of the mixtures A and B.
A sterile plastic bag was spread out on a laboratory tray, and 200 g of the commercial feed was deposited on it. With the help of a liquid diffuser bottle, by means of short pulsations, 3 g of the mixture A, previously diluted to 10 wt% in vegetable oil, was applied to the feed.
The bag was closed and shaken, and the feed additive mixture was spread by manual friction in order to distribute it homogeneously all over the feed. Then, the feed containing the mixture A was put in a plastic container. The same process was carried out with mixture B instead of mixture A.
Each of these feed samples (200 g) containing mixture A or mixture B were divided into two and put into sterile cans (100 g of feed in each) for the different thermal treatments at room temperature (RT) and freezer temperature (FT).
Thus, an analytical method by capillary gas chromatography (high separation efficiency) and flame ionization detection (high sensitivity) ([…]) was developed. An Accelerated Solvent Extractor (ASE) extraction was made on the experimental feed samples and residual fats were eliminated from the chromatographic column using backflush.
In a mortar, about 5 g of the experimental feed sample were exactly weighted. 3 g of Celite 545 were added and mixed. The mixture was put in an ASE extraction cell (22 ml) and the sample was extracted with an 80%/20% hexane/acetone mixture at 100 °C and 1500 psi with 5 successive cycles (heating time 5 min, flush 40%, purge 60s) using an ASE equipment.
After extraction, enough anhydrous sodium sulfate was added to the extracts to absorb remaining water and solid residues. All the liquid extract was collected in a 50 ml beaker. The sodium sulfate was cleaned from the extraction tubes with some ml of the 80% /20% hexane/acetone mixture and added to the beaker. It was made up with the 80% /20% hexane/acetone mixture and mixed thoroughly. In a 2 ml glass vial to the GC/FID about 1 ml of the extract was taken. When some precipitate appeared, it was centrifuged at 6000 rpm 5 min.
The same protocol shown above was performed with the experimental feed samples but adding previously 0.2 ml of the 10,000 mg/l standard to 5 g of feed in the ASE extraction cell.
The standards, the experimental feed sample extract and its corresponding spiked sample extract were injected in the GC/FID equipment, minimum by duplicate, using the chromatographic conditions given above. The quantity spiked to the feed sample was at least the same quantity expected in the feed sample. If the area of the spiked sample didn't double at least the area of the corresponding non spiked sample, a high concentration of standard was used to spike the sample.
Results were calculated by standard addition method, taking into account the weight of the feed samples extracted and the standard concentrations.

For gentamycin, the “inhibition at the expected concentration” value (Vibrio campbellii) was 4 mg/L.
In the case of O=CC=Cc1ccccc1 [AC, cinnamaldehyde], the losses [1] is given as 30-50%.
For C(=C\C1OCCO1)/c1ccccc1 [EAAC, cinnamaldehyde ethylene glycol acetal], the “Amount of active agent” value ([2]; feed containing AC and EAAC 50:50, FT, 7 days) was 269 mg/kg, the “Amount of active agent” value ([2]; feed containing AC and EAAC 50:50, FT, 14 days) was 220 mg/kg and the “Amount of active agent” value ([2]; feed containing AC and EAAC 50:50, FT, 21 days) was 265 mg/kg. The “Amount of active agent” value ([2]; feed containing AC and EAAC 50:50, FT, 28 days) was 238 mg/kg, the “Amount of active agent” value ([2]; feed containing AC and EAAC 50:50, FT, 35 days) was 197 mg/kg and the “Amount of active agent” value ([2]; feed containing AC and EAAC 50:50, FT, 42 days) was 224 mg/kg. For the same compound, the “Amount of active agent” value ([2]; feed containing AC and EAAC 50:50, RT, 7 days) was 288 mg/kg, the “Amount of active agent” value ([2]; feed containing AC and EAAC 50:50, RT, 14 days) was 236 mg/kg and the “Amount of active agent” value ([2]; feed containing AC and EAAC 50:50, RT, 21 days) was 258 mg/kg. For the same compound, the “Amount of active agent” value ([2]; feed containing AC and EAAC 50:50, RT, 28 days) was 237 mg/kg, the “Amount of active agent” value ([2]; feed containing AC and EAAC 50:50, RT, 35 days) was 191 mg/kg and the “Amount of active agent” value ([2]; feed containing AC and EAAC 50:50, RT, 42 days) was 229 mg/kg. The “Amount of active agent” value ([2]; feed containing a mixture of AC and EAAC, molar ratio 50:50, stored at freezer temperature (FT), 0 days) was 264 mg/kg and the “Amount of active agent” value ([2]; feed containing a mixture of AC and EAAC, molar ratio 50:50, stored at room temperature (RT), 0 days) was 264 mg/kg.
